Measured values reported in publication PMC11842588, “A first-in-class selective inhibitor of ERK1/2 and ERK5 overcomes drug resistance with a single-molecule strategy” (Signal Transduction and Targeted Therapy, 2025).

Experiments:
MDA-MB-231 xenograft = MDA-MB-231 xenograft tumor growth inhibition; type: in vivo, nude mice (BALB/c-nu); conditions: 50 mg/kg (each drug), intragastric once daily, 16 days, by tumor weight
Experimental: All procedures were performed in accordance with the Laboratory Animals Welfare Act, the Guide for the Care and Use of Laboratory Animals and the Guidelines and Policies. The rodent experiment was approved by IACUC (Institutional Animal Care and Use Committee) in the Experimental Animal Ethics Committee of West China Hospital (Approval No. 2021672A). 48 female nude mice (BALB/c-nu, 5 weeks, 15–18 g, purchased from Beijing HFK Bio-Technology Co., LTD) were acclimatized for one week in an SPF-grade animal facility (ventilated, 20–25 °C, 50–60% humidity). […] When the tumor volume reached approximately 100 mm^3 (V = L × W^2/2), the mice were randomly divided into six groups (n = 8 per group): (1) Control group (normal saline); (2) 25 mg/kg SKLB-D18-treated group; (3) 50 mg/kg SKLB-D18-treated group; (4) 50 mg/kg BVD-523-treated group; (5) 50 mg/kg XMD8-92-treated group; (6) BVD-523 (50 mg/kg) and XMD8-92 (50 mg/kg) combined treatment group. Drugs were freshly prepared with 5% DMSO, 10% Solutol HS-15, and 85% normal saline on the day of administration. Intragastric administration occurred once daily at the same time for 16 consecutive days. And the body weight and tumor volume of mice were measured every three days. After the administration period, all nude mice were euthanized by cervical dislocation the next day. Tumors and vital organs (heart, liver, spleen, lung, kidney) were dissected, and tumors were weighed, then immediately fixed in 4% paraformaldehyde or stored in −80 °C.

380 kinases = test: Kinase profiling, whole panel; type: biochemical, human; conditions: 1 µM, panel of 380 kinases
Experimental: (§1) 380 kinases inhibitory activities of SKLB-D18 were conducted by Eurofins Cerep SA. The result was illustrated by kinase tree (http://www.kinhub.org/kinmap/).

MAPK2(h) = test: Kinase profiling; type: biochemical, human; conditions: 1 μM
Experimental: as §1

ATM(h) = target: T1, ATM(h) (Homo sapiens, UniProt Q13315); test: Kinase profiling; type: biochemical
T1 construct: purchased Eurofins Cerep SA (KinaseProfiler)
Experimental: as §1

CDK7/cyclinH/MAT1(h) = target: T2, CDK7/cyclinH/MAT1(h) (Homo sapiens, UniProt P50613); test: Kinase profiling; type: biochemical
T2 construct: purchased Eurofins Cerep SA (KinaseProfiler)
Experimental: as §1

CK1γ2(h) = target: T3, CK1γ2(h) (Homo sapiens, UniProt P78368); test: Kinase profiling; type: biochemical
T3 construct: purchased Eurofins Cerep SA (KinaseProfiler)
Experimental: as §1

CaMKIδ(h) = target: T4, CaMKIδ(h) (Homo sapiens, UniProt Q8IU85); test: Kinase profiling; type: biochemical
T4 construct: purchased Eurofins Cerep SA (KinaseProfiler)
Experimental: as §1

CaMKK1(h) = target: T5, CaMKK1(h) (Homo sapiens, UniProt Q8N5S9); test: Kinase profiling; type: biochemical
T5 construct: purchased Eurofins Cerep SA (KinaseProfiler)
Experimental: as §1

Fer(h) = target: T6, Fer(h) (Homo sapiens, UniProt P16591); test: Kinase profiling; type: biochemical
T6 construct: purchased Eurofins Cerep SA (KinaseProfiler)
Experimental: as §1

Fes(h) = target: T7, Fes(h) (Homo sapiens, UniProt P07332); test: Kinase profiling; type: biochemical
T7 construct: purchased Eurofins Cerep SA (KinaseProfiler)
Experimental: as §1

GRK5(h) = target: T8, GRK5(h) (Homo sapiens, UniProt P34947); test: Kinase profiling; type: biochemical
T8 construct: purchased Eurofins Cerep SA (KinaseProfiler)
Experimental: as §1

Haspin(h) = target: T9, Haspin(h) (Homo sapiens, UniProt Q8TF76); test: Kinase profiling; type: biochemical
T9 construct: purchased Eurofins Cerep SA (KinaseProfiler)
Experimental: as §1

JAK3(h) = target: T10, JAK3(h) (Homo sapiens, UniProt P52333); test: Kinase profiling; type: biochemical
T10 construct: purchased Eurofins Cerep SA (KinaseProfiler)
Experimental: as §1

JNK2α2(h) = target: T11, JNK2α2(h) (Homo sapiens, UniProt P45984); test: Kinase profiling; type: biochemical
T11 construct: purchased Eurofins Cerep SA (KinaseProfiler)
Experimental: as §1

Lck(h) = target: T12, Lck(h) (Homo sapiens, UniProt P06239); test: Kinase profiling; type: biochemical
T12 construct: purchased Eurofins Cerep SA (KinaseProfiler)
Experimental: as §1

Lck(h) activated = target: T13, Lck(h) activated (Homo sapiens, UniProt P06239); test: Kinase profiling; type: biochemical
T13 construct: purchased Eurofins Cerep SA (KinaseProfiler)
Experimental: as §1

MLK3(h) = target: T14, MLK3(h) (Homo sapiens, UniProt Q16584); test: Kinase profiling; type: biochemical
T14 construct: purchased Eurofins Cerep SA (KinaseProfiler)
Experimental: as §1

PAK3(h) = target: T15, PAK3(h) (Homo sapiens, UniProt O75914); test: Kinase profiling; type: biochemical
T15 construct: purchased Eurofins Cerep SA (KinaseProfiler)
Experimental: as §1

PDGFRβ(h) = target: T16, PDGFRβ(h) (Homo sapiens, UniProt P09619); test: Kinase profiling; type: biochemical
T16 construct: purchased Eurofins Cerep SA (KinaseProfiler)
Experimental: as §1

PI3KC2g(h) = target: T17, PI3KC2g(h) (Homo sapiens, UniProt O75747); test: Kinase profiling; type: biochemical
T17 construct: purchased Eurofins Cerep SA (KinaseProfiler)
Experimental: as §1

PKG1α(h) = target: T18, PKG1α(h) (Homo sapiens, UniProt Q13976); test: Kinase profiling; type: biochemical
T18 construct: purchased Eurofins Cerep SA (KinaseProfiler)
Experimental: as §1

PKG1β(h) = target: T19, PKG1β(h) (Homo sapiens, UniProt Q13976); test: Kinase profiling; type: biochemical
T19 construct: purchased Eurofins Cerep SA (KinaseProfiler)
Experimental: as §1

PRP4(h) = target: T20, PRP4(h) (Homo sapiens, UniProt Q13523); test: Kinase profiling; type: biochemical
T20 construct: purchased Eurofins Cerep SA (KinaseProfiler)
Experimental: as §1

PhKγ2(h) = target: T21, PhKγ2(h) (Homo sapiens, UniProt P15735); test: Kinase profiling; type: biochemical
T21 construct: purchased Eurofins Cerep SA (KinaseProfiler)
Experimental: as §1

Ros(h) = target: T22, Ros(h) (Homo sapiens, UniProt P08922); test: Kinase profiling; type: biochemical
T22 construct: purchased Eurofins Cerep SA (KinaseProfiler)
Experimental: as §1

SGK3(h) = target: T23, SGK3(h) (Homo sapiens, UniProt Q96BR1); test: Kinase profiling; type: biochemical
T23 construct: purchased Eurofins Cerep SA (KinaseProfiler)
Experimental: as §1

Snk(h) = target: T24, Snk(h) (Homo sapiens, UniProt Q9NYY3); test: Kinase profiling; type: biochemical
T24 construct: purchased Eurofins Cerep SA (KinaseProfiler)
Experimental: as §1

TAO1(h) = target: T25, TAO1(h) (Homo sapiens, UniProt Q7L7X3); test: Kinase profiling; type: biochemical
T25 construct: purchased Eurofins Cerep SA (KinaseProfiler)
Experimental: as §1

TAO3(h) = target: T26, TAO3(h) (Homo sapiens, UniProt Q9H2K8); test: Kinase profiling; type: biochemical
T26 construct: purchased Eurofins Cerep SA (KinaseProfiler)
Experimental: as §1

TSSK4(h) = target: T27, TSSK4(h) (Homo sapiens, UniProt Q6SA08); test: Kinase profiling; type: biochemical
T27 construct: purchased Eurofins Cerep SA (KinaseProfiler)
Experimental: as §1

Txk(h) = target: T28, Txk(h) (Homo sapiens, UniProt P42681); test: Kinase profiling; type: biochemical
T28 construct: purchased Eurofins Cerep SA (KinaseProfiler)
Experimental: as §1

ZAP-70(h) = target: T29, ZAP-70(h) (Homo sapiens, UniProt P43403); test: Kinase profiling; type: biochemical
T29 construct: purchased Eurofins Cerep SA (KinaseProfiler)
Experimental: as §1

T28 sequence (P42681 whole entry): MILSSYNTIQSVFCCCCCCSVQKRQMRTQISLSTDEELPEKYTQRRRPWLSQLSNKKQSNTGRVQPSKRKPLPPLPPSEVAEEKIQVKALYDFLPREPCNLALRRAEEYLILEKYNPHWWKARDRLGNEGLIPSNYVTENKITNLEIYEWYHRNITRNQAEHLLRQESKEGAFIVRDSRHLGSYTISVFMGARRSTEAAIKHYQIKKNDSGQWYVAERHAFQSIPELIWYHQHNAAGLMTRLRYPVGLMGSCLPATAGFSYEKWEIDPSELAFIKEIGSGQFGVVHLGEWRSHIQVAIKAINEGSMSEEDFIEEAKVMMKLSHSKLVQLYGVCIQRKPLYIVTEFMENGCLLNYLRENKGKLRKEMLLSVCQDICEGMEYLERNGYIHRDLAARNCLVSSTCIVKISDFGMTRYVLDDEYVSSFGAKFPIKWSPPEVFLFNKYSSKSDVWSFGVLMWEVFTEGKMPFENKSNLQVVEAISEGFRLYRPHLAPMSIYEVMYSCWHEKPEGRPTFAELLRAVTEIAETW
T4 sequence (Q8IU85 whole entry): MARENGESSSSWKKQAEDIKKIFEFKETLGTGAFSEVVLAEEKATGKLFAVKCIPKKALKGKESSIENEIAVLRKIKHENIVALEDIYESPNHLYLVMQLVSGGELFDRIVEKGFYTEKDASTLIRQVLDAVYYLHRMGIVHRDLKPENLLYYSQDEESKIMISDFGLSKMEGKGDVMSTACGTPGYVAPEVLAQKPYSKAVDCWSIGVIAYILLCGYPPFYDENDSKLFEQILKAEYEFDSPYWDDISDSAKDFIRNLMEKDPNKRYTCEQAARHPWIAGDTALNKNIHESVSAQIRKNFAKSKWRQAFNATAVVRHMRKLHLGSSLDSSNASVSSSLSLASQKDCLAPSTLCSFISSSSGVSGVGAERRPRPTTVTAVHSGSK
T29 sequence (P43403 whole entry): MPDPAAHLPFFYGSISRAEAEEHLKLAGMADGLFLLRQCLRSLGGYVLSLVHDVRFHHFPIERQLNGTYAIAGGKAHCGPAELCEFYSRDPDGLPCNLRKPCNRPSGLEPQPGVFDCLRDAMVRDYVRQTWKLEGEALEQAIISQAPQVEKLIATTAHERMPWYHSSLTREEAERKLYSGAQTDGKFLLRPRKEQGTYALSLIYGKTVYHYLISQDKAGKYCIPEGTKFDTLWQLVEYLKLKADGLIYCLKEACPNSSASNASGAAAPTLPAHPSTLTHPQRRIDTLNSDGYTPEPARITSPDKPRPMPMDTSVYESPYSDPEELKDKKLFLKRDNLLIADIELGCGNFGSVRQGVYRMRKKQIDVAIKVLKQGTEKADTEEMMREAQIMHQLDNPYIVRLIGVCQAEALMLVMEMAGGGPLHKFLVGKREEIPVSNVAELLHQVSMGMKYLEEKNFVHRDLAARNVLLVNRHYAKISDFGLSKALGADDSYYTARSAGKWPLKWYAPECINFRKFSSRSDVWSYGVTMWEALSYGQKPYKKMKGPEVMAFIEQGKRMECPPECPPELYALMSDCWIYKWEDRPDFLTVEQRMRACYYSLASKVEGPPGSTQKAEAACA
T9 sequence (Q8TF76 whole entry): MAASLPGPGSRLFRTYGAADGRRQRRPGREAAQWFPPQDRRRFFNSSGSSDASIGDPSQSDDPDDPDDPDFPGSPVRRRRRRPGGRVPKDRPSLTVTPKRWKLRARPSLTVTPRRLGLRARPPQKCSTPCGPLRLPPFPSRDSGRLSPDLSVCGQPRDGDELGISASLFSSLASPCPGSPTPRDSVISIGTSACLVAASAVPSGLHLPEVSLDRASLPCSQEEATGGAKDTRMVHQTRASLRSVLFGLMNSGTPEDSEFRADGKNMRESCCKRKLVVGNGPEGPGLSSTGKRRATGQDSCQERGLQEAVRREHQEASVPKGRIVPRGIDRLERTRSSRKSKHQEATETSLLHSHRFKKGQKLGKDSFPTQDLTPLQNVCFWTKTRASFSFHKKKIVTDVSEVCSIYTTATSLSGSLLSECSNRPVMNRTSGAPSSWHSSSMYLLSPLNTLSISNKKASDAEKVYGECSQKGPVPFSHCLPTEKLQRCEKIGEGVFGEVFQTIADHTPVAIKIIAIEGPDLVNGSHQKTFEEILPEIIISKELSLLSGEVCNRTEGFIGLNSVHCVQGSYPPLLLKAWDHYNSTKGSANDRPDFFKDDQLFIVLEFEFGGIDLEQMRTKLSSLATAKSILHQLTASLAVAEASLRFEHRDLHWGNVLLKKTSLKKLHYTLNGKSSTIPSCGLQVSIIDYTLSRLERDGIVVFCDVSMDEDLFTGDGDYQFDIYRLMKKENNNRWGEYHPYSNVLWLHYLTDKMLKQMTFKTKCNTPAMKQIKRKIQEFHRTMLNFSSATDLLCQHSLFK
T8 sequence (P34947 whole entry): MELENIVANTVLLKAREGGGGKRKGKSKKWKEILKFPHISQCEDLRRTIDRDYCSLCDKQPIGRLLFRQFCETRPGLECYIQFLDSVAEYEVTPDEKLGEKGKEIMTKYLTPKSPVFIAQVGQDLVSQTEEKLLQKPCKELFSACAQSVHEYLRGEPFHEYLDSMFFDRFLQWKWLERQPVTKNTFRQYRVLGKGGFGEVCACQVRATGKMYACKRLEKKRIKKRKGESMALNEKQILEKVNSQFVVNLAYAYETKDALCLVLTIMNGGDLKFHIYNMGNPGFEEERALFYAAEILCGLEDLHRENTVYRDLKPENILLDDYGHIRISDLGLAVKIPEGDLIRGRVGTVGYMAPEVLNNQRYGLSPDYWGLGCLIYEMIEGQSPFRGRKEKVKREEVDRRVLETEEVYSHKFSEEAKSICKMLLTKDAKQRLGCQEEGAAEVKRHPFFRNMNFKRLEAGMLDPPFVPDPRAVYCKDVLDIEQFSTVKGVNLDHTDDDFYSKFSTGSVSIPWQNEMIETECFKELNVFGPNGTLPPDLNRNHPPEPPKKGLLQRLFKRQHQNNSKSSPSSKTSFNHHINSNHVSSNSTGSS
T20 sequence (Q13523 whole entry): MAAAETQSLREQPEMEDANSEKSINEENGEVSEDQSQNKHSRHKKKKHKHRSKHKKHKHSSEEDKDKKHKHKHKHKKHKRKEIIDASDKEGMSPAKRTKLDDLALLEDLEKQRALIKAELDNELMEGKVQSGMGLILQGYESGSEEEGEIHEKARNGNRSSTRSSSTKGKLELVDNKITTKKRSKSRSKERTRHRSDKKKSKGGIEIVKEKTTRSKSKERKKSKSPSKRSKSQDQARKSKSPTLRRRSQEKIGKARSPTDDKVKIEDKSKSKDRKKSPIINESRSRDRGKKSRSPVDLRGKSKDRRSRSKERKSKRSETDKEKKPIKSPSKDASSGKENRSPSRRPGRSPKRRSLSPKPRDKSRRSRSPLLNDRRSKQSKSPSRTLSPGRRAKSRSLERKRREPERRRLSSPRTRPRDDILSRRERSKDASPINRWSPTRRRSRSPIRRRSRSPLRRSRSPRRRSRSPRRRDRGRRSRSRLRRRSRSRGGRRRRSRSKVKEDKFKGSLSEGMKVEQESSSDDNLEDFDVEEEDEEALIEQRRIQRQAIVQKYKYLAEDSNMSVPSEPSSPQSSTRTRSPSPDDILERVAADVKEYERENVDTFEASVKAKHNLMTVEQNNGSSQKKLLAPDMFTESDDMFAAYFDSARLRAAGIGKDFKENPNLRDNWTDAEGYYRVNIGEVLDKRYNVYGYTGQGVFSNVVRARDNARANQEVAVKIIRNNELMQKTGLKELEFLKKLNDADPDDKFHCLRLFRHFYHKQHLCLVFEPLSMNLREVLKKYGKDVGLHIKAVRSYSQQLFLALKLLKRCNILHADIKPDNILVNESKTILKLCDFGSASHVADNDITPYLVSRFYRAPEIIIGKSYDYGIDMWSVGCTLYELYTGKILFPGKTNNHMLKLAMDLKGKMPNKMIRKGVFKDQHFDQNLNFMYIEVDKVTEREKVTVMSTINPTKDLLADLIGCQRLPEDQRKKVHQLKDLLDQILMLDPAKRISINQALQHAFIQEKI
T12 sequence (P06239 whole entry): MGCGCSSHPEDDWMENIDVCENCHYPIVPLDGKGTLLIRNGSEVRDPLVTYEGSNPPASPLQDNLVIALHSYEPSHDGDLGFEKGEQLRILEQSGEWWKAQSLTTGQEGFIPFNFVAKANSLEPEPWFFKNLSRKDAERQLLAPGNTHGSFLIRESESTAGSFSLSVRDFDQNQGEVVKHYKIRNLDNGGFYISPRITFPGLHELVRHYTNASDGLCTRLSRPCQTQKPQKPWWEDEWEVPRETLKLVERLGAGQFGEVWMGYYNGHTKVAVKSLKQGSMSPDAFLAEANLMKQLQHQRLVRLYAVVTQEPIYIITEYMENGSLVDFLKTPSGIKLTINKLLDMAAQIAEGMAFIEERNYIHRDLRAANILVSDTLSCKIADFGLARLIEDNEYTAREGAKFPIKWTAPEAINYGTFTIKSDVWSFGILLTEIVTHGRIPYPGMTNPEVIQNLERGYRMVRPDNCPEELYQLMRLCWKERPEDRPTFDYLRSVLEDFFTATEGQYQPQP
T13 sequence (P06239 whole entry): as above
T15 sequence (O75914 whole entry): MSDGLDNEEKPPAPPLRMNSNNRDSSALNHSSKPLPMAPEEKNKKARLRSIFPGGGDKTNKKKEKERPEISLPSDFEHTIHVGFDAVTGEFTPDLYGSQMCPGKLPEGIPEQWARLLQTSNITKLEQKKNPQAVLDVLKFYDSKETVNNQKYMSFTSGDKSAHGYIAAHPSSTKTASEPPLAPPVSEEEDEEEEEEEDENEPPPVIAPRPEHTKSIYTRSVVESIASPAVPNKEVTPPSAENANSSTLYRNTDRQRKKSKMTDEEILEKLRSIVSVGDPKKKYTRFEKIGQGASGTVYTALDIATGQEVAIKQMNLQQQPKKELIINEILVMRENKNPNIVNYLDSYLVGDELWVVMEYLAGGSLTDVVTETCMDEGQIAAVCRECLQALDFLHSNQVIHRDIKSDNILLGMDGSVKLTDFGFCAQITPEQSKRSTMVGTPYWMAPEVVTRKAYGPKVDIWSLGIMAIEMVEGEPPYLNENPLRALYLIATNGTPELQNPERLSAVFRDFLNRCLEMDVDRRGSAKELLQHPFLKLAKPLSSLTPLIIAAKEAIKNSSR

CN(C)Cc1cccc(Nc2ncc(Cl)c(-c3csc(C(=O)NN4CCOCC4)c3)n2)c1 [SKLB-D18, 4-(5-chloro-2-((3-((dimethylamino)methyl)phenyl)amino)pyrimidin-4-yl)-N-morpholinothiophene-2-carboxamide]
tumor inhibition rate (MDA-MB-231 xenograft): 79.88%
number of protein kinases outside of ERK1/2/5 inhibited by >70% (380 kinases): 8
Inhibition% (MAPK2(h)): 56%
inhibition at 1 µM (ATM(h)): 7%
inhibition at 1 µM (CDK7/cyclinH/MAT1(h)): 57%
inhibition at 1 µM (CK1γ2(h)): 18%
inhibition at 1 µM (CaMKIδ(h)): 47%
inhibition at 1 µM (CaMKK1(h)): 12%
inhibition at 1 µM (Fer(h)): 16%
inhibition at 1 µM (Fes(h)): 53%
inhibition at 1 µM (GRK5(h)): -1%
inhibition at 1 µM (Haspin(h)): 12%
inhibition at 1 µM (JAK3(h)): 67%
inhibition at 1 µM (JNK2α2(h)): 48%
inhibition at 1 µM (Lck(h)): 63%
inhibition at 1 µM (Lck(h) activated): 68%
inhibition at 1 µM (MLK3(h)): 69%
inhibition at 1 µM (PAK3(h)): 27%
inhibition at 1 µM (PDGFRβ(h)): 21%
inhibition at 1 µM (PI3KC2g(h)): -7%
inhibition at 1 µM (PKG1α(h)): 9%
inhibition at 1 µM (PKG1β(h)): 4%
inhibition at 1 µM (PRP4(h)): 19%
inhibition at 1 µM (PhKγ2(h)): 19%
inhibition at 1 µM (Ros(h)): -4%
inhibition at 1 µM (SGK3(h)): 9%
inhibition at 1 µM (Snk(h)): 28%
inhibition at 1 µM (TAO1(h)): 62%
inhibition at 1 µM (TAO3(h)): 36%
inhibition at 1 µM (TSSK4(h)): 36%
inhibition at 1 µM (Txk(h)): 26%
inhibition at 1 µM (ZAP-70(h)): 1%
